The source of these data is ChEMBL document CHEMBL5724914, “Linking interpersonal differences in gut microbiota composition and drug biotransformation activity” (2024).

Data set [1] is described as follows: The drug is tested on WLS-069 corresponding to human gut metagenome with ENA study accession number: PRJEB37062 and ENA sample accession number: ERS12561748 for biotransformation under anaerobic condition. The drug concentrations were measured over 9 timepoints collected between 0 and 24 hours of incubation by liquid-chromatography-coupled mass spectrometry (LC–MS). As to conditions: 2 µM.

A short description of data set [2]: The drug is tested on WLS-240 corresponding to human gut metagenome with ENA study accession number: PRJEB37062 and ENA sample accession number: ERS12561773 for biotransformation under anaerobic condition. The drug concentrations were measured over 9 timepoints collected between 0 and 24 hours of incubation by liquid-chromatography-coupled mass spectrometry (LC–MS). As to conditions: 2 µM.

Data set [3] is described as follows: The drug is tested on WLS-073 corresponding to human gut metagenome with ENA study accession number: PRJEB37062 and ENA sample accession number: ERS12561749 for biotransformation under anaerobic condition. The drug concentrations were measured over 9 timepoints collected between 0 and 24 hours of incubation by liquid-chromatography-coupled mass spectrometry (LC–MS). As to conditions: 2 µM.

The conditions of data set [4]: human gut metagenome, 24 h, 2 µM.
The conditions of data set [5]: human gut metagenome, 24 h, 2 µM. The source holds these as a separate data set.
Data set [6] is described as follows: The drug is tested on WLS-006 corresponding to human gut metagenome with ENA study accession number: PRJEB37062 and ENA sample accession number: ERS12561741 for biotransformation under anaerobic condition. The drug concentrations were measured over 9 timepoints collected between 0 and 24 hours of incubation by liquid-chromatography-coupled mass spectrometry (LC–MS). As to conditions: 2 µM.

For data set [7] the following is noted: human gut metagenome, 24 h, 2 µM. This is another data set of the same source.
For data set [8] the following is noted: human gut metagenome, 24 h, 2 µM. This is another data set of the same source.
The nature of data set [9]: The drug is tested on WLS-170 corresponding to human gut metagenome with ENA study accession number: PRJEB37062 and ENA sample accession number: ERS12561762 for biotransformation under anaerobic condition. The drug concentrations were measured over 9 timepoints collected between 0 and 24 hours of incubation by liquid-chromatography-coupled mass spectrometry (LC–MS). The conditions noted are these: 2 µM.
Further: call rule not given here.

For `COc1cc2c(c(OC)c1OC)-c1ccc(OC)c(=O)cc1[C@@H](NC(C)=O)CC2` [COLCHICINE], the “Bacterial Biotransformation” value is “Compound metabolized” in data set [1]; “Compound metabolized” in data set [2]; “Compound metabolized” in data set [3]; “Compound NOT metabolized” in data set [4]; “Compound metabolized” in data set [5]; “Compound metabolized” in data set [6]. The entries for the “Bacterial Biotransformation” value in data set [7], in data set [8] and in data set [9] were “Compound NOT metabolized”, “Compound metabolized” and “Compound metabolized”, respectively.

With `CC(=O)O[C@]1(C(C)=O)CC[C@H]2[C@@H]3C=C(Cl)C4=CC(=O)[C@@H]5C[C@@H]5[C@]4(C)[C@H]3CC[C@@]21C` [CYPROTERONE ACETATE], the “Bacterial Biotransformation” value in data set [1], in data set [2], in data set [3], in data set [4], in [5] and in [6] was “Compound metabolized” each time. The “Bacterial Biotransformation” value in data set [7], in data set [8] and in [9] was “Compound metabolized” each time.

As to `CC(=O)OCC(=O)[C@@]12N=C(C)O[C@@H]1C[C@H]1[C@@H]3CCC4=CC(=O)C=C[C@]4(C)[C@H]3[C@@H](O)C[C@@]12C` [DEFLAZACORT], the “Bacterial Biotransformation” value in data set [1], in [2], in data set [3], in data set [4], in data set [5] and in data set [6] was “Compound metabolized” each time. Also, the “Bacterial Biotransformation” value in data set [7], in data set [8] and in [9] was “Compound metabolized” throughout.

`CN(C)CC(c1ccc(O)cc1)C1(O)CCCCC1.O=C(O)CCC(=O)O` (stereo unspecified) [DESVENLAFAXINE SUCCINATE]: the “Bacterial Biotransformation” value in data set [1], in data set [2], in data set [3], in data set [4], in [5] and in [6] was “Compound NOT metabolized” throughout. Moreover, the “Bacterial Biotransformation” value in data set [7], in [8] and in data set [9] was “Compound NOT metabolized” each time.

For the compound `CN1C[C@H](C(=O)N[C@]2(C)O[C@@]3(O)[C@@H]4CCCN4C(=O)[C@H](Cc4ccccc4)N3C2=O)C=C2c3cccc4[nH]cc(c34)C[C@H]21.CN1C[C@H](C(=O)N[C@]2(C)O[C@@]3(O)[C@@H]4CCCN4C(=O)[C@H](Cc4ccccc4)N3C2=O)C=C2c3cccc4[nH]cc(c34)C[C@H]21.O=C(O)C(O)C(O)C(=O)O` [ERGOTAMINE TARTRATE], the “Bacterial Biotransformation” value in [1] was “Compound metabolized”; in data set [2] it was “Compound metabolized”; in data set [3], “Compound NOT metabolized”; in data set [4], “Compound metabolized”; in [5], “Compound metabolized”; in data set [6] it was “Compound metabolized”. Moreover, the “Bacterial Biotransformation” value in [7], in data set [8] and in data set [9] was “Compound metabolized” each time.

`CN1CCN(C(=O)O[C@H]2c3nccnc3C(=O)N2c2ccc(Cl)cn2)CC1` [ESZOPICLONE]: the “Bacterial Biotransformation” value in data set [1], in data set [2], in data set [3], in data set [4], in data set [5] and in [6] was “Compound NOT metabolized” each time. Further, the “Bacterial Biotransformation” value in data set [7], in [8] and in data set [9] was “Compound NOT metabolized” throughout.

On to `O=C1[C@H](CC[C@H](O)c2ccc(F)cc2)[C@@H](c2ccc(O)cc2)N1c1ccc(F)cc1` [EZETIMIBE], for which the “Bacterial Biotransformation” value in data set [1] is “Compound metabolized”; in data set [2], “Compound metabolized”; in [3], “Compound metabolized”; in [4] it was “Compound NOT metabolized”; in [5], “Compound NOT metabolized”; in [6], “Compound metabolized”. The figures for the “Bacterial Biotransformation” value in data set [7], in [8] and in [9] were “Compound NOT metabolized”, “Compound NOT metabolized” and “Compound metabolized”, respectively.

Turning to `CC(C)OC(=O)C(C)(C)Oc1ccc(C(=O)c2ccc(Cl)cc2)cc1` [FENOFIBRATE], the “Bacterial Biotransformation” value in [1] is “Compound NOT metabolized”; in data set [2] it was “Compound NOT metabolized”; in data set [3] it was “Compound NOT metabolized”; in data set [4], “Compound metabolized”; in data set [5] it was “Compound metabolized”; in data set [6] it was “Compound metabolized”. Moreover, the “Bacterial Biotransformation” value in data set [7], in [8] and in [9] was “Compound metabolized” in each case.

Consider `O=C1NCC2(CCN(CCc3ccccc3)CC2)O1` [FENSPIRIDE], for which the “Bacterial Biotransformation” value in data set [1], in data set [2], in data set [3], in data set [4], in [5] and in data set [6] was “Compound NOT metabolized” each time. For the same compound, the “Bacterial Biotransformation” value in data set [7], in data set [8] and in data set [9] was “Compound NOT metabolized” throughout.

For the compound `OC(Cn1cncn1)(Cn1cncn1)c1ccc(F)cc1F` [FLUCONAZOLE], the “Bacterial Biotransformation” value is “Compound metabolized” in data set [1]; “Compound metabolized” in data set [2]; “Compound NOT metabolized” in data set [3]; “Compound NOT metabolized” in data set [4]; “Compound metabolized” in data set [5]; “Compound metabolized” in [6]. Besides, the entries for the “Bacterial Biotransformation” value in [7], in [8] and in [9] were “Compound NOT metabolized”, “Compound metabolized” and “Compound metabolized”, respectively.

As to `CNCCC(Oc1ccc(C(F)(F)F)cc1)c1ccccc1` (stereo unspecified) [FLUOXETINE], the “Bacterial Biotransformation” value was “Compound NOT metabolized” in [1]; “Compound metabolized” in [2]; “Compound NOT metabolized” in data set [3]; “Compound NOT metabolized” in data set [4]; “Compound NOT metabolized” in data set [5]; “Compound NOT metabolized” in [6]. The figures for the “Bacterial Biotransformation” value in [7], in data set [8] and in [9] were “Compound metabolized”, “Compound NOT metabolized” and “Compound NOT metabolized”, respectively.

Take `O=C(CCCN1CCC(O)(c2ccc(Cl)cc2)CC1)c1ccc(F)cc1` [HALOPERIDOL]: the “Bacterial Biotransformation” value in data set [1] is reported as “Compound metabolized”; in data set [2] it was “Compound metabolized”; in data set [3], “Compound NOT metabolized”; in data set [4], “Compound NOT metabolized”; in data set [5], “Compound NOT metabolized”; in data set [6], “Compound metabolized”. Also, the “Bacterial Biotransformation” value in [7] is given as “Compound NOT metabolized”; in data set [8] it was “Compound NOT metabolized”; in data set [9] it was “Compound metabolized”.

As for `CCCCC1=NC2(CCCC2)C(=O)N1Cc1ccc(-c2ccccc2-c2nnn[nH]2)cc1` [IRBESARTAN], the “Bacterial Biotransformation” value in data set [1], in data set [2], in [3], in data set [4], in [5] and in data set [6] was “Compound metabolized” in each case. The “Bacterial Biotransformation” value in [7], in [8] and in [9] was “Compound metabolized” in each case.

Take `COC(=O)C1=C(C)NC(C)=C(C(=O)OC(C)C)C1c1cccc2nonc12` (stereo unspecified) [ISRADIPINE]: the “Bacterial Biotransformation” value in [1] was “Compound metabolized”; in data set [2], “Compound metabolized”; in data set [3], “Compound NOT metabolized”; in [4], “Compound NOT metabolized”; in [5], “Compound NOT metabolized”; in [6], “Compound NOT metabolized”. The “Bacterial Biotransformation” value in data set [7] is listed as “Compound metabolized”; in [8], “Compound NOT metabolized”; in [9], “Compound metabolized”.
